Data taken from US11766472B2, “Method of treatment for hair loss” (priority 2021, dated 2023).
Where two headings read alike, the source gives them in different places.

Experiments:
[1] = system: hair loss (men Norwood Hamilton grade III to grade V; women Ludwig grade II and III); details: human, in vivo
Protocol: (§1) This controlled clinical trial compares the current treatment for hair loss within two controlled groups for both men and women against the use of one embodiment of the nutritional therapy regimen described herein. One hundred patients in each of the 4 groups, a total of 400 patients, were followed for 1 year. The progress was evaluated every 2 months with computerized measurements of hair density, hair caliber, global photography and uniquely designed self-assessment scores.
(§2) Group 3 TM: Treatment group for 100 men (TM) and
(§3) Group 4 TW: treatment group for 100 women (TW)
(§4) Treatment groups for both men and women followed the same protocol.

hair loss = details: cited from earlier work
[2] = system: hair loss (men Norwood Hamilton grade III to grade V; women Ludwig grade II and III); test: Controlled clinical trial: minoxidil and finasteride in men, minoxidil alone in women, versus nutrient treatment regimen (Example 1); details: human, in vivo
Protocol: as §1, §2, §3, §4

Duration for which patients complained of hair loss (initial shedding) [1] | SMILES | Side effects observed with the control group [1] | Patients having deteriorated with hair loss more than the initial status (hair loss; after one year) [%] | Improvement (hair loss; end of 1 year) | Non-responders (hair loss; end of 1 year) | Side effects observed with the control group [2]
– | CC(C)(C)NC(=O)[C@H]1CC[C@H]2[C@@H]3CC[C@H]4NC(=O)C=C[C@]4(C)[C@H]3CC[C@]12C [finasteride] | Loss of libido was reported by a few patients | 17 | 48-59% | 41-52% | –
8-10 weeks | Nc1cc(N2CCCCC2)nc(N)[n+]1[O-] [minoxidil] | – | – | – | – | scalp irritation, dryness, itching, and frizzy hair
